How the values were obtained:
Test in all cases: Enzymatic reaction rate with glycerol (MBTH assay)
Type in all cases: biochemical
[1] = system: Klebsiella pneumoniae fused glycerol dehydratase fGDHt variant M158W(β); conditions: substrate glycerol, MBTH assay 5 minutes, deoxygenated 35 mM phosphate buffer (pH 8.0), 2 µM coenzyme B12
Experimental: (§1) The activities of the wild-type and variant enzymes were measured at 25°C using 3-methyl-2-benzothiazolinone hydrazone (MBTH). To eliminate oxygen inactivation, the enzymes were incubated for 5 minutes in 35 mM phosphate buffer (pH 8.0) stirred with a negative pressure pump. The reaction was initiated by the addition of glycerol. The absorbance measured at 670 nm of the variant was compared with that of the wild-type fGDHt to determine the relative substrate activity (FIG. 10). The MBTH assay was performed as follows:
(§2) The reaction was then initiated by adding glycerol, the substrate to the assay mixture. The reaction was performed for 5 minutes and the reaction was terminated by adding 12 mg/mL MBTH and 0.1 M potassium citrate buffer (pH 3.6). Five minutes after the reaction was terminated, FeCl3 was added thereto and the reaction was performed for 15 minutes. The absorbance was measured at 670 nm.
(§3) Km and Kcat were calculated using the following Equation (Michaelis-Menten equation): v = (d[P])/(dt) = Vmax ([S])/(KM + [S]) = kcat [E]0 ([S])/(KM + [S]) [formula]
(§4) wherein Km is the Michaelis constant and Kcat is the enzyme turnover number.

[2] = system: Klebsiella pneumoniae fused glycerol dehydratase fGDHt variant A177M/L113W(α/β); conditions: substrate glycerol, MBTH assay 5 minutes, deoxygenated 35 mM phosphate buffer (pH 8.0), 2 µM coenzyme B12
Experimental: as §1, §2, §3, §4

[3] = system: Klebsiella pneumoniae glycerol dehydratase, fGDHt (alpha-beta fused subunit, stop codon TAA changed to glutamine CAA), SEQ ID NO: 4; conditions: substrate glycerol, MBTH assay 5 minutes, deoxygenated 35 mM phosphate buffer (pH 8.0), 2 µM coenzyme B12
Experimental: as §1, §2, §3, §4

[4] = system: Klebsiella pneumoniae fused glycerol dehydratase fGDHt variant A177M/M158W(α/β); conditions: substrate glycerol
Experimental: as §1, §2, §3, §4

[5] = system: Klebsiella pneumoniae fused glycerol dehydratase fGDHt variant A177M/L113W/M158W(α/β/β); conditions: substrate glycerol, MBTH assay 5 minutes, deoxygenated 35 mM phosphate buffer (pH 8.0), 2 µM coenzyme B12
Experimental: as §1, §2, §3, §4

[6] = system: Klebsiella pneumoniae fused glycerol dehydratase fGDHt variant A177M(α); conditions: substrate glycerol, MBTH assay 5 minutes, deoxygenated 35 mM phosphate buffer (pH 8.0), 2 µM coenzyme B12
Experimental: as §1, §2, §3, §4

[7] = system: Klebsiella pneumoniae fused glycerol dehydratase fGDHt variant L113F(β); conditions: substrate glycerol
Experimental: as §1, §2, §3, §4

[8] = system: Klebsiella pneumoniae fused glycerol dehydratase fGDHt variant L113W(β); conditions: substrate glycerol, MBTH assay 5 minutes, deoxygenated 35 mM phosphate buffer (pH 8.0), 2 µM coenzyme B12
Experimental: as §1, §2, §3, §4

[9] = FGDHt(A177M/M158W(α/β)), MBTH assay 5 minutes, deoxygenated 35 mM phosphate buffer (pH 8.0), 2 µM coenzyme B12
[10] = fGDHt (L113F(β)), MBTH assay 5 minutes, deoxygenated 35 mM phosphate buffer (pH 8.0), 2 µM coenzyme B12

## OCC(O)CO [glycerol]
[1]
  Km: 340 ± 50 µM
[2]
  Kcat: 31.96 ± 9.42 s⁻¹
[3]
  Kcat: 230.28 ± 10.63 s⁻¹
  Km: 270 ± 30 µM
[4]; A177M/M158W (α/β) compared with fGDHt
  kcat/Km higher than those of fGDHt: 8%
[4]; [9]
  Kcat: 155.47 ± 13.23 s⁻¹
  Km: 150 ± 40 µM
[5]
  Kcat: 28.93 ± 2.17 s⁻¹
  Km: 140 ± 40 µM
[6]
  Kcat: 107.48 ± 14.91 s⁻¹
  Km: 360 ± 70 µM
[7]; L113F (β) compared with fGDHt
  kcat/Km higher than those of fGDHt: 6%
[7]; [10]
  Kcat: 208.62 ± 21.8 s⁻¹
  Km: 240 ± 60 µM
[8]
  Kcat: 31.82 ± 10.99 s⁻¹
  Km: 520 ± 170 µM

Reference: patent EP4722358A1 (AJOU UNIVERSITY INDUSTRY-ACADEMIC COOPERATION FOUNDATION, priority 2023, dated 2024)
